≈ marks a conversion by molar mass, not a printed value. Structures can show the parent of a compound that is named as a salt. Where two headings read alike, the source gives them in different places. One block for each molecule: values may come before it.
Columns and labels:
[1] = Oral exposure of dasatinib and gastric pH in dogs with famotidine, pentagastrin or betaine HCl pretreatment; format: in vivo, beagle dogs
Procedure: Dogs were treated with dasatinib 50 mg tablet (Example 5). Dogs in each group received the following pretreatment: Group 1: no pretreatment (control); Group 2: famotidine 40 mg tablet orally, 3 hours prior to dasatinib; Group 3: pentagastrin by intramuscular injection (6 mg/kg) 30 min before dasatinib administration; Groups 4 and 5: Two betaine HCl 750 mg tablets were administered to the two groups as follows: one betaine HCl tablet orally 5 min before dasatinib and the other 20 min before dasatinib Group 5 was also treated with famotidine 40 mg tablet orally, 3 hours prior to dasatinib. […] Betaine HCl performs as well as pentagastrin, and improves dasatinib/famotidine exposure (AUC, FIG. 5C).
Dasatinib pharmacokinetics was evaluated in dogs with famotidine-induced hypochlorhydria (FIG. 5A). Dasatinib was administered as a 50 mg SPRYCEL® (Bristol-Myers Squibb) tablet. Famotidine 40 mg tablets were administered 3 hrs before dasatinib. Pentagastrin injection was administered intramuscularly 30 min prior before dasatinib administration. Two betaine HCl 750 mg tablets administered at the following times: 1 orally 20 min and 5 min prior to dasatinib administration.
Five groups of naïve, male beagle dogs (n=4 per group) each received a different pretreatment prior to dasatinib treatment.
(§1) Group 1: no pretreatment (control)
Group 2: famotidine 40 mg tablet orally, 3 hours prior to dasatinib
Group 3: pentagastrin by intramuscular injection (6 mg/kg) 30 min before dasatinib administration
Groups 4 and 5: Two betaine HCl 750 mg tablets were administered to the two groups as follows: one betaine HCl tablet orally 5 min before dasatinib and the other 20 min before dasatinib
Group 5: famotidine 40 mg tablet orally, 3 hours prior to dasatinib.

[2] = cited from earlier work
[3] = cited from earlier work; remark: listed apart in the source
[4] = 100 mg dasatinib after 40 mg omeprazole daily for 4 days; cited from earlier work
[5] = cited from earlier work; remark: listed apart in the source
[6] = cited from earlier work; remark: listed apart in the source
[7] = test system: gastric pH; experiment: Gastric pH (Heidelberg capsule) after betaine HCl in healthy volunteers with rabeprazole-induced hypochlorhydria; format: in vivo
Procedure: The pH of the stomach was measured over time with a Heidelberg capsule with tether swallowed at t=0. […] Onset of effect of betaine HCl was rapid, with a mean time to pH<3 of 6.3 (±4.3) min, and its duration was adequate but temporary, with a gastric pH<3 and <4 lasting 72.5 (±32.9) and 76.8 (±30.4) min, respectively.
Dasatinib pharmacokinetics was evaluated in healthy volunteer subjects with rabeprazole-induced hypochlorhydria by dosing 20 mg oral rabeprazole twice daily for 4 days. On the morning (a.m.) of study day 5, subjects received an additional 20 mg oral rabeprazole, and the Heidelberg Capsule pH diagnostic system (HC) was used for continuous gastric pH monitoring. When gastric pH remained >4 for at least 15 min, a 1500 mg dose of betaine HCl was given orally, and gastric pH was monitored for 2 h. During part 2 of this study a 3-period crossover study, five of ten subjects each received: (A) 100 mg dasatinib (Control); (B) 100 mg dasatinib after rabeprazole pre-treatment; (C) 100 mg dasatinib, 1500 mg betaine HCl, after rabeprazole pre-treatment. For treatments B+C, 20 mg rabeprazole twice daily was given for 3 days prior to and on the a.m. of each study day. Gastric pH was monitored and DAS plasma concentrations were measured over 22 h (see study schematic below) with dasatinib concentration versus time results shown in FIG. 8A and exposure (AUC) in FIG. 8B.

[8] = pH solubility profile of GDC-0941 (shake flask method); format: physicochemical; conditions: 50 mM USP buffer, aqueous buffer, thermodynamic from solid, 48 hours at 37° C.
Procedure: The solubility test was conducted using the shake flask method. […] Each sample was prepared at a volume of approximately 2 mL, with excess solid in each sample. […] Samples were then filtered and concentrations were determined by HPLC under reversed-phase conditions using a C18 column, and elution with a phosphate buffer (pH 6.5), acetonitrile gradient. The injection volume was 5 μL, with a flow rate of 1.2 mL/min and detection at 230 nm.

[9] = media with enough betaine HCl to lower the pH to 2.4 or below
[10] = Oral exposure of GDC-0941 in dogs with famotidine, pentagastrin or betaine HCl pretreatment; format: in vivo; conditions: male, beagle, dog, plasma, 40 mg, 40 mg oral
Procedure: Group 2 dogs were pretreated with famotidine 40 mg tablet to induce hypochlorhydria and as a negative control. Group 3 dogs were pretreated with pentagastrin by intramuscular injection 6 mg/kg. Pentagastrin is a synthetic peptide which stimulates the secretion of […], pepsin, and intrinsic factor, and lowers the pH of the gut through physiologic stimulation of acid secretion. […] Group 5 dogs were pretreated with famotidine, then treated with betaine HCl, 2×750 mg tablets.
as §1

[11] = Effect of rabeprazole on pharmacokinetics of GDC-0941 in patients with advanced solid tumors; format: in vivo; conditions: cancer patients pretreated with rabeprazole 20 mg Days 4-8, Day 8 vs Day 1
[12] = single 50-mg dose 10 hours following 40 mg of famotidine

Structure (SMILES): Cc1nc(Nc2ncc(C(=O)Nc3c(C)cccc3Cl)s2)cc(N2CCN(CCO)CC2)n1 [dasatinib, Dasatinib]
dasatinib levels ([1]; dogs, dasatinib+famotidine without betaine HCl, 50 mg tablet): at or below the limits of assay detection
solubility ([2]; pH 2.6, 24° C.): ~18000 µg/mL (≈ 36900 µM)
solubility ([2]; pH 4.0, 24° C.): ~690 µg/mL (≈ 1410 µM)
solubility ([2]; pH 4.28, 24° C.): 205 µg/mL (≈ 420 µM)
solubility ([2]; pH 7.0, 24° C.): < 1 µg/mL
solubility of highest commercial dose strength (140 mg) in 250 mL of water ([2]; pH range of 4.3 to 7.0 at 24° C.): not soluble
between-subject variability in Ka ([3]; in vivo): exceeded 100%
between-subject variability in relative bioavailability (FR) ([3]; in vivo): 33%
inter-occasion variability (IOV) within a subject in FR ([3]; in vivo): 44%
decrease of FR with use of PPI ([3]; not statistically significant): 17%
decrease of AUCinf [4]: 43%
decrease of Cmax [4]: 42%
reduction of bioavailability [4]: ~40%
increase in AUCinf ([5]; high fat meal): 14%
increase in AUCinf ([5]; low fat meal): 21%
exposure ([6]; Maalox 30 mL administered 2 hours prior to dasatinib): unchanged
reduction of bioavailability (AUC) ([6]; dasatinib 50 mg BID, famotidine 40 mg 10 hours prior): 61%
reduction of AUC0-12 [6, 12]: ~60%
reduction of Cmax [6, 12]: ~60%

Structure (SMILES): C[N+](C)(C)CC(=O)O [betaine HCl, Betaine hydrochloride]
effect on gastric pH ([1]; dogs treated with famotidine+betaine HCl): reversal of hypochlorhydria
lowering of gastric pH ([7]; 30 min interval after dosing 1500 mg, N=6): 4.54 (±0.46) units
duration of gastric pH<3 ([7]; after 1500 mg betaine HCl): 72.5 (±32.9) min
duration of gastric pH<4 ([7]; after 1500 mg betaine HCl): 76.8 (±30.4) min
mean time to pH<3 ([7]; after 1500 mg betaine HCl): 6.3 (±4.3) min

Structure (SMILES): NC(N)=Nc1nc(CSCCC(N)=NS(N)(=O)=O)cs1 [famotidine]
effect on gastric pH ([1]; dogs pretreated with famotidine 40 mg): significant hypochlorhydria (increased gastric pH)

solubility at 48 h ([8]; all tested pH values above pH 4.4, read-out: measured solubility): ~1 µg/mL (≈ 1.95 µM)
solubility at 48 h ([8]; pH 1.0, read-out: solubility): ~800 µg/mL (≈ 1560 µM)
solubility at 48 h ([8]; pH 3.0, read-out: solubility): ~8 µg/mL (≈ 15.6 µM)
solubility at 48 h ([8]; pH 7.5, read-out: solubility): < 1 µg/mL
drug rapidly dissolved and maintained in solution [9]: greater than 90%
AUC ([10]; Group 4 (betaine HCl only pretreatment)): 7.38 µM·h
AUC ([10]; Group 5 (famotidine+betaine HCl), excluding animal D501 (n=3)): 7.12 µM·h
decrease of GDC-0941 (AUC, FIG. 7) [11]: 40%
Structure (SMILES): CS(=O)(=O)N1CCN(Cc2cc3nc(-c4cccc5[nH]ncc45)nc(N4CCOCC4)c3s2)CC1 [GDC-0941, 4-(2-(1H-indazol-4-yl)-6-((4-(methylsulfonyl)piperazin-1-yl)methyl)thieno[3,2-d]pyrimidin-4-yl)morpholine]
